Laboratory results taken from patent publication US11980689B2 (AVALYN PHARMA INC., priority 2013, dated 2024).
“Also recorded” adds a separate entry of the source.

What was measured:
[1] = system: p110-γ and p110-δ; settings: cited from earlier work
[2] = system: PI3K; settings: cited from earlier work
[3] = single- and repeat-dosing; cited from earlier work
[4] = biological target: p110a (Homo sapiens, UniProt P42336); settings: cited from earlier work
[5] = system: breast cancer stem cells; settings: mouse, in vivo; cited from earlier work
[6] = system: lung cancer; settings: cited from earlier work
[7] = biological target: JAK2V617F (Homo sapiens, UniProt O60674, V617F); settings: cited from earlier work
[8] = biological target: CYP3A4 (Homo sapiens, UniProt P08684); settings: cited from earlier work
[9] = chelation of iron(III); format: physicochemical
[10] = chelation of magnesium; format: physicochemical
[11] = biological target: epidermal growth factor (EGF) receptor intracellular domain (Homo sapiens, UniProt P00533); settings: purified enzymes; cited from earlier work
[12] = biological target: VEGF-R1 (Homo sapiens, UniProt P17948); settings: purified enzymes; cited from earlier work
[13] = biological target: VEGF-R2 (Homo sapiens, UniProt P35968); settings: purified enzymes; cited from earlier work
[14] = in vivo
[15] = biological target: fibroblast growth factor receptor 1 (FGF-R1) (Homo sapiens, UniProt P11362); settings: purified enzymes; cited from earlier work
[16] = biological target: TIE-2 [TEK] (Homo sapiens, UniProt Q02763); settings: purified enzymes; cited from earlier work
[17] = biological target: c-MET (Homo sapiens, UniProt P08581); settings: purified enzymes; cited from earlier work
[18] = biological target: KIT receptor; settings: cited from earlier work
[19] = system: committed progenitor cells from patients with CML; settings: cited from earlier work
[20] = system: KIT with mutations affecting the activation loop; settings: cited from earlier work
[21] = biological target: PDGFR-α (Homo sapiens, UniProt P16234); settings: cellular studies; cited from earlier work
[22] = biological target: PDGFR-β (Homo sapiens, UniProt P09619); settings: cellular studies; cited from earlier work
[23] = biological target: T1, TEL-PDGFRβ (Homo sapiens, UniProt P09619); settings: mouse, in vivo; cited from earlier work
T1 construct: host or cells: transgenic mice; the other entry of the earlier key: ETV6 (P41212, Transcription factor ETV6)

[24] = system: bleomycin-induced pulmonary fibrosis; settings: cited from earlier work
[25] = system: radiation-induced lung fibrosis; settings: mouse, in vivo; cited from earlier work
[26] = system: liver fibrosis; settings: cited from earlier work
[27] = system: heavy metal challenge; settings: oral; cited from earlier work
[28] = system: kidney fibrosis following diabetic challenge; settings: oral; cited from earlier work
[29] = system: renal fibrosis; settings: rat, in vivo; cited from earlier work
[30] = Sprague-Dawley, rat, in vivo, po, 5.6 mg/kg
[31] = system: doxorubicin-induced toxicity (heart and kidney); settings: mortality, abdominal fluid, cardiac and renal lesions; cited from earlier work
[32] = system: cardiac fibrosis; settings: rat, in vivo; cited from earlier work
[33] = system: fibrosis; settings: rat, in vivo; cited from earlier work
[34] = system: dimethylnitrosamine-induced hepatic fibrosis; settings: cited from earlier work
[35] = system: Hepatitis C viral-related liver disease; settings: oral; cited from earlier work
[36] = in vivo; settings: Sprague-Dawley, rat
[37] = system: A10 rat aorta smooth muscle cells; settings: cited from earlier work
[38] = system: CML; settings: cited from earlier work
[39] = system: KIT with mutations in the juxtamembrane domain-coding region; settings: cited from earlier work
[40] = system: Alpha-1 glycoprotein (AGP); settings: cited from earlier work
[41] = biological target: kit in H526 cells (Homo sapiens, UniProt P10721); settings: pretreatment of H526 cells; cited from earlier work
[42] = biological target: c-kit (Homo sapiens, UniProt P10721); settings: kinase activity at 5 μM; cited from earlier work
[43] = system: IPF; settings: cited from earlier work
[44] = biological target: mTOR (Homo sapiens, UniProt P42345); settings: cited from earlier work

T1 sequence (P09619 554-1106 limits assumed): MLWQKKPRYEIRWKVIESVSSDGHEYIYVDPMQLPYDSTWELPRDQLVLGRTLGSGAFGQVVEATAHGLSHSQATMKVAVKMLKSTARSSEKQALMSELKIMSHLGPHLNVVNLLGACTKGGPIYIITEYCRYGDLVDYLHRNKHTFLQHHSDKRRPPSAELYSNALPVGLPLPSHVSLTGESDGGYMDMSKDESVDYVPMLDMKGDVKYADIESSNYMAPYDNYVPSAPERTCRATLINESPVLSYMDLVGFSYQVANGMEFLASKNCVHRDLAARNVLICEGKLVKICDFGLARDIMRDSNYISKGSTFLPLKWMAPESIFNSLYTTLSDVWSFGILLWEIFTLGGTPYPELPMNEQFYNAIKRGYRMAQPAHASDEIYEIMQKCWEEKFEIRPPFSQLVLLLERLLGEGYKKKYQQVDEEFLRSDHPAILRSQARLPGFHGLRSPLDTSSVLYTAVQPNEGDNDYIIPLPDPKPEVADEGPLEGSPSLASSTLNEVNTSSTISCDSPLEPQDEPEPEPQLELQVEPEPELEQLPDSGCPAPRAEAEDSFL
PDGFR-α, sequence (P16234 24-1089, species assumed): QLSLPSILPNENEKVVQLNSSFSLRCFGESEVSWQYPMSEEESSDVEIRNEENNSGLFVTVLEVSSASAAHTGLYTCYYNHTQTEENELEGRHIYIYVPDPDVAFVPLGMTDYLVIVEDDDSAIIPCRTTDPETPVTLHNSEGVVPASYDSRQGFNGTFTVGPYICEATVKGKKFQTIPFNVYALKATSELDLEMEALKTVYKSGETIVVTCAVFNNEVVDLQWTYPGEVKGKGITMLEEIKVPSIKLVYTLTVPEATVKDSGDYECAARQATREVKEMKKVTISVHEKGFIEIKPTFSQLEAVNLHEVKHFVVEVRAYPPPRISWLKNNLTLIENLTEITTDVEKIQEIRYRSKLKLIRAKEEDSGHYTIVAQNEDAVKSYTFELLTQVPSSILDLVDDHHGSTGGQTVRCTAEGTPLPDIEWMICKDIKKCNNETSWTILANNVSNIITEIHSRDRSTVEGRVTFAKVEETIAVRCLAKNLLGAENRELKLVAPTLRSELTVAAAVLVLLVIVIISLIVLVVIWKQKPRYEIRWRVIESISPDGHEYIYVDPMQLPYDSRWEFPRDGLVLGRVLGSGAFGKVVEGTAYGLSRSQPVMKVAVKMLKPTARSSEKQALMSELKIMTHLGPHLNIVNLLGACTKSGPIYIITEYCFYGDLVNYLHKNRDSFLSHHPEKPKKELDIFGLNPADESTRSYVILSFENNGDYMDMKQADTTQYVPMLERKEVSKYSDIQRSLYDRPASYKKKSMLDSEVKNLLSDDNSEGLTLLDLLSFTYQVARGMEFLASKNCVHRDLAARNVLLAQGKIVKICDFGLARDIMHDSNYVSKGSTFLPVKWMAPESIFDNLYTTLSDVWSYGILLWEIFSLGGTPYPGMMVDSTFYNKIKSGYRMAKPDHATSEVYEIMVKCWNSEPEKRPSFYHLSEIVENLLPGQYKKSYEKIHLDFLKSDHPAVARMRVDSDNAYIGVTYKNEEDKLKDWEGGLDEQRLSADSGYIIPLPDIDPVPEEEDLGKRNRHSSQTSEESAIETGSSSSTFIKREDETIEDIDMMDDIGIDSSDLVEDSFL
fibroblast growth factor receptor 1 (FGF-R1), sequence (P11362 22-822, species assumed): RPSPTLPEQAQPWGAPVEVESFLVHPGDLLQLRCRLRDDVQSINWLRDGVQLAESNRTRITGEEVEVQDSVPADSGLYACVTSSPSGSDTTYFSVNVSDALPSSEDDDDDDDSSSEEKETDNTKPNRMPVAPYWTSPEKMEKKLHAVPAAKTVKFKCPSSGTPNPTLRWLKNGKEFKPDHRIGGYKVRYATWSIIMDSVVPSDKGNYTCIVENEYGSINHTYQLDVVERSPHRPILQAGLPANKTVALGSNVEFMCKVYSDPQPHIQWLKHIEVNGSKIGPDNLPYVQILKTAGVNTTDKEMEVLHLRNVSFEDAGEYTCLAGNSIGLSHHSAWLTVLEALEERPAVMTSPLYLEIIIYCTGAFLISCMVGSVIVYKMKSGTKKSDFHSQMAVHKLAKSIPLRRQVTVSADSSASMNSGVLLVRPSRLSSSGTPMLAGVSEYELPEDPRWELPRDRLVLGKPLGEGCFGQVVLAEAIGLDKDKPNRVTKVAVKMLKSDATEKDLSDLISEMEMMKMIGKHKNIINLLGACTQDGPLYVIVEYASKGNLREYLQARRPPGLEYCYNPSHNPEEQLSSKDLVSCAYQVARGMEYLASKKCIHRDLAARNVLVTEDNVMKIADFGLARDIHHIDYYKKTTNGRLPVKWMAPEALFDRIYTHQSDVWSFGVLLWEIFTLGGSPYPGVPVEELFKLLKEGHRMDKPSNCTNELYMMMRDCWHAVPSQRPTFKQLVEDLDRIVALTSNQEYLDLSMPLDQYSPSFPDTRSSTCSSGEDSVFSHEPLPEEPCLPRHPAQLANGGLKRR
p110a, sequence (P42336 whole entry, species assumed): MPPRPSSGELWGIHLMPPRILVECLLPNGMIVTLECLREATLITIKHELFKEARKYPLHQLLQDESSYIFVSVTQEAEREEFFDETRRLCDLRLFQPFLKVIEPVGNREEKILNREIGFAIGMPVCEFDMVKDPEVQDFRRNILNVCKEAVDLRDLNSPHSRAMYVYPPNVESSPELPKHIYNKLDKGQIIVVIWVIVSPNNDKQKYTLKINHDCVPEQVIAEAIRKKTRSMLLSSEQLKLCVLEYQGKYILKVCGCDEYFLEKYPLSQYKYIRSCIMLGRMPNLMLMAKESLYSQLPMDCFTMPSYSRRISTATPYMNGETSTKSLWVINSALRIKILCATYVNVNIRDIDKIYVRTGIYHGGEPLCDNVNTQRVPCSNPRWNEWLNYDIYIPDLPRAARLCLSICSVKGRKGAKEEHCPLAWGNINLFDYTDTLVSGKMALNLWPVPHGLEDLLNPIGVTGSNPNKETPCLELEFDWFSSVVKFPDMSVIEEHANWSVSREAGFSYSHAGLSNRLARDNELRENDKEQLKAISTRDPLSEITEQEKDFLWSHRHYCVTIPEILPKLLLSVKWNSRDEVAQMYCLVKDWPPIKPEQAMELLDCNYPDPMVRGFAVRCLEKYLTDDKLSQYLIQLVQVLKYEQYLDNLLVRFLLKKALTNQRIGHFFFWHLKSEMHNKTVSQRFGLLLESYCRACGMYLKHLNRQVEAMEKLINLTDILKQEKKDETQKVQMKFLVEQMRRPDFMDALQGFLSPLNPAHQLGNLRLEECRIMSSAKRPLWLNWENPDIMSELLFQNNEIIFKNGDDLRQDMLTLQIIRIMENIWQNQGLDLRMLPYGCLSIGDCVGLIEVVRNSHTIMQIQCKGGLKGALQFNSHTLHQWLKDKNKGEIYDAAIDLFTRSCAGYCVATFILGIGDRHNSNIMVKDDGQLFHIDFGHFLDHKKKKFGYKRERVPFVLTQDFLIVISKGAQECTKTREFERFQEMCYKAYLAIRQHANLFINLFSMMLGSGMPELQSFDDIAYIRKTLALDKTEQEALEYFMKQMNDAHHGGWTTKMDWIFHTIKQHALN
p110a, sequence (P27986 whole entry partner, species assumed): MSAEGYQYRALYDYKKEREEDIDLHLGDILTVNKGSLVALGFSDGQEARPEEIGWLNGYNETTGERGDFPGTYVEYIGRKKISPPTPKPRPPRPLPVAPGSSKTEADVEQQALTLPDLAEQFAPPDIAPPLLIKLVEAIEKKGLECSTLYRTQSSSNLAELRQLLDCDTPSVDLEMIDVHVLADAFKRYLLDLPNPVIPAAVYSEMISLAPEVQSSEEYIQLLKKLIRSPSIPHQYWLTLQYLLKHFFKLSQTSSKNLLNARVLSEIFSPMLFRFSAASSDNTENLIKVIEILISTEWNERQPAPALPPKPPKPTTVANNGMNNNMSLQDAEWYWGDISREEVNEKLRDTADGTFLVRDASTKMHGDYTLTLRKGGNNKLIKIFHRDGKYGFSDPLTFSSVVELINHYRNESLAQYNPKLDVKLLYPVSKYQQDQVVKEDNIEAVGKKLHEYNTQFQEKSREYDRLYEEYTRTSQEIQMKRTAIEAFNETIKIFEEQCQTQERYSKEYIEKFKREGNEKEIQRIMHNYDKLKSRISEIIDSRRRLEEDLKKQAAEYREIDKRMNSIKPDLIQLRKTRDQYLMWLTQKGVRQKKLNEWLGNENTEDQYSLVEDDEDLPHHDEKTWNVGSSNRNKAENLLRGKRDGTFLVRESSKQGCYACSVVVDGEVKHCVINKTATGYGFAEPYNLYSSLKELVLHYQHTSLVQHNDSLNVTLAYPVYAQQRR
CYP3A4, sequence (P08684 whole entry): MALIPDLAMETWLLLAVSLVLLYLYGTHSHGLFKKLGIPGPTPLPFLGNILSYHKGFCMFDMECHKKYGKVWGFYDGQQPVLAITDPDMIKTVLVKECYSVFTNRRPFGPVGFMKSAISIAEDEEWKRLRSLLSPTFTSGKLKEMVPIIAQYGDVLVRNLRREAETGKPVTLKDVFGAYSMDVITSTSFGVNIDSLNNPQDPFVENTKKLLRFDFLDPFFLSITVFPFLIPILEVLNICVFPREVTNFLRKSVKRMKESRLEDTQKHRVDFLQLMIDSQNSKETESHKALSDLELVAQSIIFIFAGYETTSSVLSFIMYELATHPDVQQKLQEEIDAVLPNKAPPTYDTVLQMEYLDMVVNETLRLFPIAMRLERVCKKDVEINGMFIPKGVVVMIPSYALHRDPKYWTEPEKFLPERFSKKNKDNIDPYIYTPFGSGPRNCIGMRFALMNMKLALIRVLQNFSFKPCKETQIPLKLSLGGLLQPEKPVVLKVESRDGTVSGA

## Nc1nc(N)c2nc(-c3cccc(O)c3)c(-c3cccc(O)c3)nc2n1 [TG100-115]
[1]
  better potency than against the other isoforms: 5-10 fold

## O=C1NC(=O)/C(=C/c2ccc3nccc(-c4ccncc4)c3c2)S1 [GSK1059615]
[3]
  exposure: lack of sufficient exposure

## FC(F)c1nc2ccccc2n1-c1nc(N2CCOCC2)nc(N2CCOCC2)n1 [ZSTK474]
[4]
  inhibition: potent inhibitor

## CC[C@@H](C(=O)[C@@H](C)[C@@H](O)[C@H](C)[C@@H]1O[C@@H]([C@@H](CC)C(=O)O)CC[C@@H]1C)[C@H]1O[C@]2(C=C[C@@H](O)[C@]3(CC[C@@](C)([C@H]4CC[C@](O)(CC)[C@H](C)O4)O3)O2)[C@H](C)C[C@@H]1C [Salinomycin]
[5]
  effectiveness relative to paclitaxel: at least 100 times

## C#Cc1cccc(Nc2ncnc3cc(OCCOC)c(OCCOC)cc23)c1 [Erlotinib]
[6]; EGFR mutation positive patients
  response rate: approximately 60%
[6]; human, in vivo
  time to resistance from the start of treatment: 8-12 months
[7]
  inhibition of JAK2V617F activity: potent inhibitor
[8]
  metabolism: mainly metabolized

## Cc1ccc(NC(=O)c2ccc(CN3CCN(C)CC3)cc2)cc1Nc1nccc(-c2cccnc2)n1 [imatinib, 4-[(4-methylpiperazin-1-yl)methyl]-N-(4-methyl-3-{[4-(pyridin-3-yl)pyrimidin-2-yl]amino}phenyl)benzamide]
[9]
  imatinib molecules per iron(III) ion: three
[10]
  imatinib molecules to one magnesium ion: two
[11]
  inhibition of EGF receptor intracellular domain: did not inhibit
[12]
  inhibition of kinase activity: weak or no inhibition
[13]
  inhibition of kinase activity: weak or no inhibition
[14]
  lung-surface cations: depletion of essential lung-surface cations
[15]
  inhibition of kinase activity: weak or no inhibition
[16]
  inhibition of kinase activity: weak or no inhibition
[17]
  inhibition of kinase activity: weak or no inhibition
[18]; cell line from a GIST patient with an activating Kit mutation
  KIT autophosphorylation: suppress
[18]; upon binding of stem-cell factor (SCF)
  autophosphorylation of the KIT receptor: potently inhibited; also recorded: blocks
[19]
  colony formation: selective inhibition
[20]
  sensitivity of KIT mutants: resistant
[21]
  receptor inhibition: potent inhibition
[22]
  receptor inhibition: potent inhibition
[23]
  survival of the animals: prolonged survival
  tumor formation: inhibited tumor formation
[24]; Days 0 to 15
  development of pulmonary fibrosis, early treatment: significantly prevented
[24]; Days 15 to 28
  development of pulmonary fibrosis, late treatment: did not
[24]; mouse, in vivo
  development of pulmonary fibrosis: inhibited the development of pulmonary fibrosis
[25]
  effect on lung fibrosis: antifibrotic effects
[26]; Days 0 to 21
  inhibition of liver fibrosis, early treatment: effective
[26]; Days 22 to 35
  inhibition of liver fibrosis, late treatment: not late
[27]
  effect against heavy metal challenge: protective effect
[28]
  effect on fibrosis following diabetic challenge: fibrosis reversal
[29]
  action in renal fibrosis: antifibrotic action
[30]
  Lung AUC: 64.1 mg·h/kg
  Lung Cmax: 13.0 µg/g
[31]
  severity of doxorubicin-induced toxicity: reduced the severity
[32]
  fibrosis: reversed and prevented fibrosis
[33]
  fibrosis: reversal of fibrosis
[34]; in vivo
  mRNA for type I collagen and transforming growth factor-beta in the liver: suppressed
[34]; oral
  effect against hepatic fibrosis: protective effect
  hepatic hydroxyproline levels: reduced
[35]
  fibrosis and quality of life: decreased fibrosis and improved quality of life
[36]; inhaled or intranasal, 1 mg/kg
  AUC: 40 ng·h/mL
  Cmax: 20 ng/mL
[36]; po, 5.6 mg/kg
  AUC: 4900 ng·h/mL
  Cmax: 1100 ng/mL
[37]
  serum-induced growth: did not affect
[38]; chronic-phase CML, doses of 300 mg or higher
  patients achieving a complete haematological response: 98%
[38]; oral 25 to 1,000 mg per day
  maximal tolerated dose: no maximal tolerated dose was identified
[39]
  inhibition of KIT kinase activity: effective
[40]
  binding by AGP: high affinity
[41]
  SCF-mediated kit activation: inhibited
[42]
  tyrosine phosphorylation and in vitro kinase activity of c-kit: dose-dependent inhibition
[43]; DICO, change in PVC, 6-minute walk test
  secondary outcome parameters: no benefit
[43]; dose reduction 600 mg to 400 mg daily allowed
  incidence of AE-related drop-outs: 22%
[43]; in vivo
  primary outcome, time to disease progression: no benefit

## Cc1c(CN2CCN(S(C)(=O)=O)CC2)sc2c(N3CCOCC3)nc(-c3cnc(N)nc3)nc12 [GNE-477]
[44]
  IC50: 21 nM
